Data on 123 molecules can be found in a melting point compilation (Tetko et al.).

As to `Cc1nc(-c2ccc(Cl)cc2)sc1C(C)O` (stereo not drawn), the melting point is 119 to 121 °C. `Nc1cc(Cl)ncn1` registered a melting point of 196 to 198 °C. Next, `O=C(Nc1ccccn1)c1cc2ccccc2cc1O`: 236 to 238 °C; `O=C(NCc1ccccc1)c1cc(Cl)ccn1`: 66 to 68 °C. `COc1ccc([N+](=O)[O-])cc1C#N` displayed a melting point of 69 to 71 °C.

`NNC(=O)Cn1ccc2ccccc21` gave a melting point of 176 to 178 °C. `O=C(O)C1(Cc2nc3ccccc3s2)CCCCC1` showed a melting point of 170 to 172 °C.

`CC(=O)NC(=O)CCl`: the melting point was 113 to 115 °C. Take `CN(C)C(=O)Sc1ccc(CCl)cc1`: the melting point fell in the range of 78 to 80 °C. Next, `CC(C)(C)c1cn2nc(Br)sc2n1`: 105 to 107 °C; `Cc1c(C=O)c(=O)n(-c2ccccc2)n1C`: 162 to 165 °C; `Cc1cc(C)c(CCNC(=O)CCl)c(C)c1`: 143 to 145 °C. For `CCc1cccc(N2CC(C(=O)O)CC2=O)c1` (stereo not drawn) the value was 120 to 122 °C; for `CCCCc1ccnc(N)n1`, 99 to 101 °C.

In turn, `O=C(O)C1CC(=O)N(C2CCCC2)C1` (stereo not drawn) registered a melting point of 136 to 138 °C. Next, `CC(=O)CC(=O)Nc1ccc2nc(C)sc2c1`: 129 to 131 °C; `CC(C)(C)OC(=O)NCCCC(N)=S`: 94 to 96 °C. Next, `O=C1CCOc2ccc(Br)cc21`: 73 to 75 °C; `Cc1cc(C)c2c(N)nsc2n1`: 180 to 182 °C; `CCCN1Cc2ccc(N)cc2C1`: 48 to 50 °C. Next, `COc1ccc(NCc2cccs2)cc1`: 71 to 73 °C. `CC(C)c1ccsc1C(=O)O` registered a melting point of 97 to 99 °C.

As for `O=C(CC1CCCCC1)Nc1cccc2c1NCCC2`, the melting point lay in the range of 179 to 181 °C. In turn, `CNC(=O)c1cc(OC)ccc1N` displayed a melting point of 119 to 121 °C. Next, `Cc1cc(C)c(S(N)(=O)=O)cc1C`: 179 to 181 °C. Next, `CS/C(=N\C#N)N1CCOCC1`: 126 to 128 °C; `NC(=O)c1ccc(Cl)nn1`: 239 to 241 °C. For `NC1=NN(c2c(Cl)cc(Cl)cc2Cl)C(=O)C1` the value was 218 to 220 °C; for `Nc1ccnn1C1CCS(=O)(=O)C1` (stereo not drawn), 169 to 171 °C. For the molecule `CCNC(=O)NC1CCC(O)CC1` (stereo not drawn), the melting point was in the range of 36 to 39 °C. In turn, `O=Cc1cn(Cc2ccccc2)nc1-c1cc2ccccc2o1` registered a melting point of 146 to 148 °C. For `Cc1ccc(S(C)(=O)=O)c(N)c1` the value was 103 to 105 °C; for `Nc1ccc2c(c1)CCN2C(=O)c1ccoc1`, 173 to 175 °C.

In turn, `COC(=O)c1ccc(CCC(=O)O)cc1` showed a melting point of 113 to 115 °C.

Molecule `COCCn1nc(C(=O)O)ccc1=O` registered a melting point of 156 to 158 °C.

`CCNC(=O)CC(=O)O` yielded a melting point of 51 to 53 °C.

In turn, `CC(C)c1nc(CC(=O)O)cs1` came in with a melting point of 87 to 89 °C. For `CCCCS(=O)(=O)Nc1ccc(F)c(N)c1` the value was 71 to 73 °C; for `Cc1c(C(=O)O)cccc1N1CCNC1=O`, 221 to 223 °C.

`CN(C)S(=O)(=O)c1ccc(/C=C/C(=O)O)cc1` displayed a melting point of 268 to 270 °C. For `Cc1ccnc2nc(C(=O)O)nn12` the value was 240 to 242 °C; for `CC(O)c1nc2ccccc2s1` (stereo not drawn), 61 to 63 °C. Next, `Cn1cc(C(=O)O)c(-c2ccc(F)cc2F)n1`: 231 to 233 °C; `COC(=O)c1ccc(OCc2ccccc2)c(N)c1`: 96 to 98 °C; `CCOc1ccc(S(N)(=O)=O)c2ccccc12`: 168 to 170 °C. Molecule `O=C(O)c1nccnc1-c1nc2ccccc2s1` returned a melting point of 188 to 190 °C. Next, `CC(=O)c1cc(N)cc(C(C)=O)c1`: 139 to 141 °C; `NS(=O)(=O)c1ccnc(Cl)c1`: 134 to 136 °C. For `O=C(O)c1cccc(S(=O)(=O)NC2CCOC2=O)c1` (stereo not drawn) the value was 220 to 222 °C; for `N#CCc1c[nH]c2ccc(F)cc12`, 54 to 56 °C; for `Clc1ccc(Cl)c(OCCBr)c1`, 57 to 59 °C. Next, `O=Cc1c[nH]nc1-c1ccccc1F`: 114 to 116 °C; `CCN(CC)C(=O)c1ccc(N)cc1Cl`: 154 to 156 °C; `O=C(O)c1ccc(C2CCCOC2)cc1` (stereo not drawn): 166 to 168 °C.

With `O=C(O)CCc1nc2sc3c(c2c(=O)[nH]1)CCCC3`, the melting point was 140 to 142 °C. For `O=C(O)COc1cc(Cl)cc(Cl)c1` the value was 115 to 117 °C; for `Cc1cc(OC(C)C(=O)O)ccc1Cl` (stereo not drawn), 87 to 89 °C; for `Cc1cc(C)c2ncc(C#N)c(Cl)c2c1`, 141 to 143 °C.

As for `O=C(O)C=Cc1ccc(OC(F)(F)C(F)C(F)(F)F)cc1` (stereo not drawn), the melting point is 159 to 163 °C. Next, `Cc1ccn2c(CN3CCNCC3)c(C)nc2c1`: 97 to 99 °C; `CCOc1ccc(C(=O)CC)cc1OCC`: 39 to 41 °C; `CCn1c(C(=O)O)cc2ccccc21`: 177 to 179 °C. Next, `O=C(O)/C=C/c1ccc(Br)c(Cl)c1`: 175 to 186 °C; `COC(=O)c1n[nH]c(=O)c2noc(C3CC3)c12`: 234 to 236 °C; `O=C(CCl)NCc1ccc(F)cc1C(F)(F)F`: 95 to 97 °C. For `NNc1ncccn1` the value was 90 to 92 °C; for `O=C(O)CC(Cc1ccccc1)c1ccccc1` (stereo not drawn), 90 to 92 °C; for `CC(=O)NC(C)(C)C(N)=NO`, 163 to 165 °C. As to `CN(C1CCCCC1)S(=O)(=O)c1ccc(N)cc1`, the melting point was in the range of 142 to 144 °C.

The molecule `O=C(O)C1CCN(C(=O)COc2ccccc2)CC1` showed a melting point of 73 to 75 °C. `CS(=O)(=O)NCCBr` showed a melting point of 44 to 46 °C. Take `Nc1cc(C(=O)O)c(Br)cn1`: the melting point lay within 276 to 278 °C.

The molecule `NCc1cccc(CN2CCCC(C(N)=O)C2)c1` (stereo not drawn) displayed a melting point of 104 to 106 °C.

In turn, `O=C(O)c1nnn(-c2ccc(Br)cc2)c1C1CC1` yielded a melting point of 176 to 178 °C. Next, `COC(=O)C(Cc1c[nH]c2ccccc12)NC(=O)c1ccc2ccccc2c1` (stereo not drawn): 182 to 184 °C. Next, `O=C(O)c1cc(Br)c[nH]1`: 169 to 171 °C.

`O=S(=O)(CCO)c1ccc(Br)cc1` came in with a melting point of 63 to 65 °C. `O=C(O)c1cc(-c2c(F)cccc2F)no1` displayed a melting point of 181 to 183 °C. Next, `Nc1nc2ccc(Cl)cn2n1`: 183 to 185 °C; `Nc1cncc(Cl)n1`: 149 to 151 °C.

Turning to `O=C(O)c1c[nH]cc1-c1ccc(F)cc1`, the melting point fell in the range of 199 to 201 °C. Next, `CCOc1ccc(Cl)nn1`: 60 to 62 °C; `CC(C)(C(=O)O)c1ccccc1Cl`: 111 to 113 °C. For `Cn1c(CCl)nc2ccccc2c1=O` the value was 179 to 181 °C. Next, `CC1CCN(S(=O)(=O)c2ccc(C(=O)O)s2)CC1`: 207 to 209 °C; `CCS(=O)(=O)CC(=O)O`: 57 to 59 °C. Turning to `CC(=O)CC(=O)Nc1cccc(Cl)c1`, the melting point was in the range of 105 to 107 °C. Next, `Cc1ccc(C#N)c(Sc2ccccc2)c1`: 59 to 61 °C. Take `CCOC(=O)c1c(C)n(C2CCCC2)c2ccc(O)cc12`: the melting point fell in the range of 228 to 230 °C. Take `CC(Cl)C(=O)NC(C)(C)C` (stereo not drawn): the melting point lay within 84 to 86 °C. Next, `COc1ccc(S(=O)(=O)N2CCOCC2)cc1C(=O)O`: 180 to 184 °C; `COc1cc(C(=O)O)cc(OC)c1OC(F)F`: 179 to 181 °C; `O=C(O)c1c[nH]c2cccc(Br)c12`: 159 to 161 °C.

`CCCOc1ccc(C(=O)NN)cc1OC` had a melting point of 146 to 148 °C. Next, `N#CCS(=O)(=O)c1cc(Cl)ccc1Cl`: 114 to 116 °C; `CNC(=O)c1cc2ccccc2[nH]1`: 221 to 223 °C. Next, `Nc1nnc(-c2ccc3c(c2)CCC3)o1`: 273 to 275 °C. For `CN(C)Cc1ccc(C(=O)O)cc1` the value was 239 to 241 °C; for `Cc1cccc(NC(=O)N2CCCC(C(=O)O)C2)c1` (stereo not drawn), 139 to 141 °C; for `CCOC(=O)c1sc2nc(C)nc(Cl)c2c1C`, 145 to 147 °C.

As for `Nc1cc(Br)ccc1-n1cccn1`, the melting point is 69 to 71 °C. Next, `NC(=S)CCc1ccccc1`: 82 to 84 °C. Next, `Oc1ccccc1-c1nc(CCl)no1`: 76 to 78 °C; `Cc1nc(N)sc1Cc1ccccc1Cl`: 126 to 128 °C. For `O=C(O)CSc1nnc(-c2cccs2)n1C1CC1` the value was 229 to 231 °C; for `O=C(O)CN1C(=O)c2ccccc2S1(=O)=O`, 218 to 220 °C; for `O=C1CC2(CCCCC2)C(=O)N1`, 132 to 140 °C.

`NS(=O)(=O)c1cc(C(=O)O)cc([N+](=O)[O-])c1Cl` showed a melting point of 143 to 147 °C. Regarding `Nc1ccc(OCC(F)(F)F)c(C(F)(F)F)c1`, the melting point was 48 to 50 °C. For `N#Cc1ccc(NN)cc1C(F)(F)F` the value was 119 to 121 °C; for `Nc1ccc2nc3n(c(=O)c2c1)CCC3`, 221 to 223 °C; for `Cc1nn(C(C)(C)C)c(C)c1S(=O)(=O)Cl`, 68 to 70 °C. Next, `Nc1c(Cl)nc(-c2ccccc2)nc1Cl`: 140 to 142 °C; `C#CCNC(=O)CBr`: 73 to 75 °C. On to `CS(=O)(=O)c1ccc(Br)c(S(=O)(=O)Cl)c1`, for which the melting point fell in the range of 160 to 162 °C.

Regarding `O=C(NC1CCS(=O)(=O)C1)OCC(F)(F)F` (stereo not drawn), the melting point lay within 79 to 81 °C.

The molecule `CC(C)Oc1cccc(CNC(=O)CCl)c1` registered a melting point of 69 to 71 °C. Next, `O=C(CCl)NC(Cc1c[nH]c2ccccc12)C(=O)O` (stereo not drawn): 153 to 155 °C; `CC(C)C(=O)NC(C)c1ccc(S(=O)(=O)Cl)s1` (stereo not drawn): 68 to 70 °C.

Consider `CCC1C(=O)NCCN1C(N)=S` (stereo not drawn), for which the melting point fell in the range of 216 to 218 °C. Next, `O=C(O)c1ccc(Oc2ccc(Cl)cc2Cl)cc1`: 168 to 170 °C; `COc1cc(C(=O)O)ccc1OC(F)F`: 171 to 173 °C; `CC(=O)N1CCC(CCC(=O)O)CC1`: 119 to 121 °C.

One may read the melting point as the temperature of the solid-liquid transition.
